Test results as given in patent US6514918B1, “Viscous, mild, and effective cleansing compositions” (Johnson & Johnson Consumer Companies, Inc., priority 2000, dated 2003).

Experiments:
subject's eye = assay: Ocular Irritancy Test (human ocular sting); assay type: in vivo; conditions: 1.0% in mild cleansing composition
Experimental: 2. Ocular Irritancy Test: Using a double-blinded, randomized, two (2) cell study test design, one (1) drop of a sample (e.g. a 10% dilution of a cleansing composition in water) at a temperature of about 38° C. was instilled into a subject's eye. A new sterile disposable eyedropper was used for each sample and disposed of after being used on only one individual's eye. All instillations were performed either by an investigator or by a trained technician.
Within 30 seconds, or as closely as possible following instillation, the subject was asked to grade the perceived stinging sensation to the eye utilizing the following criteria:
After 15 minutes and 60 minutes post-instillation, the subject was again asked to grade the perceived stinging sensation to the eye. The data was collected from a balanced, complete block experiment then statistically analyzed.
The samples of Examples 1-8 were tested for ocular irritancy. The results are reported in Table 4 in terms of the percentage of subjects who found the respective sample to be stinging to their eyes.
A sample was considered to have low ocular irritancy if less than 20% of the people tested found the sample to sting their eyes.

[1] = Final batch viscosity, Brookfield DV-I+ Viscometer; assay type: physicochemical; conditions: 1.0% in cleansing composition; acceptable if at least twice the viscosity of Example 1
Experimental: After this mixture had cooled to a temperature not greater than 40° C., the following components were added sequentially thereto: 0.10 parts Tetrasodium EDTA, 0.05 parts Quaternium-15, and 1.9 parts Glycerin. After this solution mixture had cooled to room temperature (approximately 25° C.), the pH of the resulting solution was then adjusted with a 20% citric acid solution until a final pH of 6.0 to 6.6 was obtained. The batch weight of the solution was then adjusted with water in order to achieve a total formulation of 100 parts. Table 2 lists the final batch viscosity of each Example as measured by a Brookfield DV-I+Viscometer using the indicated spindle and speed.
The viscosity of the examples was considered acceptable if it was at least twice the viscosity of Example 1.

[2] = Foam Generation (Foam Tray Test); assay type: physicochemical; conditions: 1.0% in cleansing composition; acceptable if at least twice the foam of Example 1
Experimental: 1. Foam Generation: 1 g of a cleansing composition sample was added to a tray containing 5 liters of tap water, then gently mixed until homogenous without generating any foam. A Model AJMP14 Jiffy Mixer mechanical mixer available from U.S. Best, Inc. with an attached propeller blade was then set at a level in the tray such that the propeller blade was halfway immersed in the mixture. The mixer was then activated at a speed of 2000 RPM for 30 seconds to generate foam. Foam data was collected via photography using a Polaroid MP4+ camera at 30 seconds after the mixing was ceased. The area of foam in the tray was calculated and reported as % area of foam in tray.
Foam performance evaluation was then accomplished for each of the cleansing compositions of Examples 1-8.
Foaming of the Examples was considered acceptable if it was at least twice the amount of foam of Example 1.

Row | Substance | Mildness to the eye relative to Cocamide MIPA and Cocamide MEA (subject's eye) | Effect on viscosity of a mild cleansing composition [1] | Effect on foam generation in mild cleansing compositions [2]
1 | PEG-6 Lauramide | significantly more mild to the eye | effective at increasing the viscosity | effective at increasing foam generation
2 | polyethylene glycol (“PEG”)-6 Cocamide [PEG-6 Cocamide] | significantly more mild to the eye | effective at increasing the viscosity | effective at increasing foam generation
3 | PEG-3 Cocamide | significantly more mild to the eye | effective at increasing the viscosity | effective at increasing foam generation
4 | Cocamide MEA [reference compound] |  | effective at increasing the viscosity | effective at increasing foam generation
5 | Cocamide DEA [reference compound] | significantly more mild to the eye | effective at increasing the viscosity | effective at increasing foam generation
6 | Cocamide MIPA [reference compound] |  | effective at increasing the viscosity | effective at increasing foam generation
7 | polypropylene glycol (“PPG”)-2 Hydroxyethyl Cocamide [PPG-2 Hydroxyethyl Cocamide] | significantly more mild to the eye | effective at increasing the viscosity | effective at increasing foam generation
